Measurements from US9771377B2, “Synthesis of FR901464 and analogs with antitumor activity” (University of Pittsburgh—Of the Commonwealth System of …, priority 2012, dated 2017).
Like-named read-outs stand apart in the source and are kept apart here.

What was measured:
JHU 012 = assay: Growth inhibition assay (MTS), JHU 012; assay type: cell-based; conditions: 3 to 5 days
Experimental: (§1) Meayamycin, 4-TEGylated meayamycin, and 4-TEGylated FR901464 (right fragment) compounds were produced using the above protocols. The compounds were dissolved in dimethyl sulfoxide (DMSO) as 10 mM stocks and stored at −20° C. Prior to assays being performed, aliquots were thawed at room temperature and dilutions were prepared in RPMI 1640 medium containing 2% DMSO at 2×the desired concentration prior to addition to the cells.
(§2) The cells were grown at 37° C. in an atmosphere containing 5% carbon dioxide in corning cell culture flasks (25 cm^2) in RPMI 1640 cell culture medium containing 10% fetal bovine serum, 1% Penicillin/Streptomycin, and 1% L-Glutamine.
(§3) Cells were plated in 96 well plates at an initial density of 2,000 cells per well in 100 μL of medium and were incubated for 24 hours prior to compound addition. […] The compound was added to the cells at 2× the desired concentration in 100 μL cell culture medium. The cells were then incubated for an additional 3 to 5 days. Cell proliferation was measured using a commercial MTS solution (20 μL per well). The absorbance (at 490 nm and 630 nm) was measured by a Spectromax M2 plate reader (Molecular Devices). Each concentration treatment was done in quadruplets and the final numbers were averaged.

cancer cell = assay: Cancer cell antiproliferative activity (background statement); assay type: cell-based
Description: This pharmacological profile for FR901464 has drawn considerable interest, focusing on its potential as an anticancer agent.

A549 = assay: Growth inhibition assay (MTS), A549; assay type: cell-based; conditions: 3 to 5 days
Experimental: as §1, §2, §3

MDA-MB-231 = assay: Growth inhibition assay (MTS), MDA-MB-231; assay type: cell-based; conditions: 3 to 5 days
Experimental: as §1, §2, §3

HEK-293-II = assay: Growth inhibition assay (MTS), HEK-293-II; assay type: cell-based
Experimental: as §1, §2, §3

PCI 13 = assay: Growth inhibition assay (MTS), PCI 13; assay type: cell-based; conditions: 3 to 5 days
Experimental: as §1, §2, §3

HCT116 = assay: Growth inhibition assay (MTS), HCT116; assay type: cell-based
Experimental: as §1, §2, §3

[1] = tested on: pre-mRNA splicing in HEK-293-II cells; assay: HEK-293-II cell-based splicing inhibition assay (luciferase, RT-PCR)
Experimental: Splicing inhibition by PEGylated meayamycin was evaluated using the published HEK-293-II cell-based assay. In short, luciferase expression increases when pre-mRNA splicing is inhibited. Yang Gao et al., published online at Chem Bio Chem. Nov. 22, 2012 (DOI: 10.1002/cbic.201200558). […] (FIG. 1). Pre-mRNA splicing inhibition by 4-TEGylated meayamycin was examined in HEK-293-II cells over 72 h. The splicing inhibition, as manifested by the luciferase activity, in the 4-TEGylated meayamycin-treated cells persisted for 48 h, which was different from that in the meayamycin-treated cells. (FIG. 2).

MCF-7 = assay: Growth inhibition assay (MTS), MCF-7; assay type: cell-based
Experimental: as §1, §2
Cells were plated in 96 well plates at an initial density of 2,000 cells per well in 100 μL of medium and were incubated for 24 hours prior to compound addition. Serial two-fold dilutions were used in this experiment from 100 nM to 0.000191 nM. The compound was added to the cells at 2× the desired concentration in 100 μL cell culture medium. The cells were then incubated for an additional 3 to 5 days. Cell proliferation was measured using a commercial MTS solution (20 μL per well). The absorbance (at 490 nm and 630 nm) was measured by a Spectromax M2 plate reader (Molecular Devices). Each concentration treatment was done in quadruplets and the final numbers were averaged.

tumor = conditions: mouse model; cited from earlier work
MCF-7 cells = MCF-7 cells at 20 nM; cited from earlier work
[2] = HEK-293-II, 3 to 5 days, MTS, read-out: GI50

Structure (SMILES): C=C[C@H]1OC(C)(C)C[C@@]2(CO2)[C@@H]1OCCOCCOCCOCCN=[N+]=[N-] [4-TEGylated FR901464 (right fragment)]
- GI50 (JHU 012): 2000 nM
- cancer cell antiproliferative activity (cancer cell): high cancer cell antiproliferative activity
- GI50 (A549; Homo sapiens): 2200 nM
- GI50 (MDA-MB-231; Homo sapiens): 1500 nM
- GI50 (HEK-293-II; [2]): 8900 nM
- GI50 (PCI 13): 3700 nM
- GI50 (HCT116; Homo sapiens, HCT-116, HCT116, 3 to 5 days, MTS, read-out: GI50): 2200 nM
- IC50 (HCT116; Homo sapiens, HCT-116, read-out: GI150, inhibition of HCT-116 proliferation): 1500 nM

Structure (SMILES): CC(=O)O[C@@H](C)/C=C\C(=O)N[C@@H]1C[C@H](C)[C@H](C/C=C(C)/C=C/[C@H]2OC(C)(C)C[C@@]3(CO3)[C@@H]2OCCOCCOCCOCCN=[N+]=[N-])O[C@@H]1C [4-TEGylated meayamycin]
- time the splicing inhibition (luciferase activity) persisted ([1]; HEK-293-II cells examined over 72 h, FIG. 2): 48 h
- RT-PCR analysis of total RNA: pre-mRNA splicing ([1]; HEK-293-II cells, FIG. 1): inhibited pre-mRNA splicing
- IC50 ([1]; HEK-293-II, luciferase, 16-h treatment, average of three independent experiments, read-out: IC150, inhibitory activity towards pre-mRNA splicing): 2.4 nM
- GI50 (MCF-7; Homo sapiens, MCF7, 3 to 5 days): 2.4 nM
- GI50 (HEK-293-II): 46 nM
- GI50 (HCT116; Homo sapiens, HCT-116): 0.1 nM

Structure (SMILES): CC(/C=C/[C@H]1OC(C)(C)C[C@@]2(CO2)[C@@H]1CCCOCCOCCOCCN=[N+]=[N-])=C\C[C@@H]1O[C@H](C)C(NC(=O)/C=C\[C@H](C)OC(=O)N2CCOCC2)C[C@@H]1C (stereo partly shown) [4-TEGylated-FR901464 analog]
- cancer cell antiproliferative activity (cancer cell): high cancer cell antiproliferative activity

Structure (SMILES): CC(=O)O[C@@H](C)/C=C\C(=O)N[C@@H]1C[C@H](C)[C@H](C/C=C(C)/C=C/[C@H]2O[C@](C)(O)C[C@@]3(CO3)[C@@H]2O)O[C@@H]1C [FR901464]
- concentrations at which antitumor activity is exhibited (tumor): 0.056 to 0.18 mg/kg
- mRNA levels of p53, p21, c-myc, and E2F-1 (MCF-7 cells): lowers the mRNA levels

Structure (SMILES): CC(=O)O[C@@H](C)/C=C\C(=O)N[C@@H]1C[C@H](C)[C@H](C/C=C(C)/C=C/[C@H]2OC(C)(C)C[C@@]3(CO3)[C@@H]2O)O[C@@H]1C [meayamycin, reference compound]
- GI50 (JHU 012): 4.7 nM
- GI50 (MCF-7; 3 to 5 days): 0.8 nM
- GI50 (A549): 0.26 nM
- GI50 (MDA-MB-231): 0.07 nM
- GI50 (HEK-293-II; [2]): 7.8 nM
- GI50 (PCI 13): 4.8 nM
- GI50 (HCT116; HCT116, 3 to 5 days, MTS, read-out: GI50): 0.038 nM

Structure (SMILES): C=C[C@H]1OC(C)(C)C[C@@]2(CO2)[C@@H]1O [right fragment without PEGylation, (3R,4R,5R)-7,7-dimethyl-5-vinyl-1,6-dioxaspiro[2.5]octan-4-ol]
- antiproliferation activity (HCT116; even at 200 μM): no antiproliferation activity
